What all share (assay type): cell-based
Assay [1] addresses T1, proteins of HEK293T cells transiently overexpressing caspase-6 (Homo sapiens, UniProt Q9BQG0).
T1 sequence (Q9BQG0 1-1328): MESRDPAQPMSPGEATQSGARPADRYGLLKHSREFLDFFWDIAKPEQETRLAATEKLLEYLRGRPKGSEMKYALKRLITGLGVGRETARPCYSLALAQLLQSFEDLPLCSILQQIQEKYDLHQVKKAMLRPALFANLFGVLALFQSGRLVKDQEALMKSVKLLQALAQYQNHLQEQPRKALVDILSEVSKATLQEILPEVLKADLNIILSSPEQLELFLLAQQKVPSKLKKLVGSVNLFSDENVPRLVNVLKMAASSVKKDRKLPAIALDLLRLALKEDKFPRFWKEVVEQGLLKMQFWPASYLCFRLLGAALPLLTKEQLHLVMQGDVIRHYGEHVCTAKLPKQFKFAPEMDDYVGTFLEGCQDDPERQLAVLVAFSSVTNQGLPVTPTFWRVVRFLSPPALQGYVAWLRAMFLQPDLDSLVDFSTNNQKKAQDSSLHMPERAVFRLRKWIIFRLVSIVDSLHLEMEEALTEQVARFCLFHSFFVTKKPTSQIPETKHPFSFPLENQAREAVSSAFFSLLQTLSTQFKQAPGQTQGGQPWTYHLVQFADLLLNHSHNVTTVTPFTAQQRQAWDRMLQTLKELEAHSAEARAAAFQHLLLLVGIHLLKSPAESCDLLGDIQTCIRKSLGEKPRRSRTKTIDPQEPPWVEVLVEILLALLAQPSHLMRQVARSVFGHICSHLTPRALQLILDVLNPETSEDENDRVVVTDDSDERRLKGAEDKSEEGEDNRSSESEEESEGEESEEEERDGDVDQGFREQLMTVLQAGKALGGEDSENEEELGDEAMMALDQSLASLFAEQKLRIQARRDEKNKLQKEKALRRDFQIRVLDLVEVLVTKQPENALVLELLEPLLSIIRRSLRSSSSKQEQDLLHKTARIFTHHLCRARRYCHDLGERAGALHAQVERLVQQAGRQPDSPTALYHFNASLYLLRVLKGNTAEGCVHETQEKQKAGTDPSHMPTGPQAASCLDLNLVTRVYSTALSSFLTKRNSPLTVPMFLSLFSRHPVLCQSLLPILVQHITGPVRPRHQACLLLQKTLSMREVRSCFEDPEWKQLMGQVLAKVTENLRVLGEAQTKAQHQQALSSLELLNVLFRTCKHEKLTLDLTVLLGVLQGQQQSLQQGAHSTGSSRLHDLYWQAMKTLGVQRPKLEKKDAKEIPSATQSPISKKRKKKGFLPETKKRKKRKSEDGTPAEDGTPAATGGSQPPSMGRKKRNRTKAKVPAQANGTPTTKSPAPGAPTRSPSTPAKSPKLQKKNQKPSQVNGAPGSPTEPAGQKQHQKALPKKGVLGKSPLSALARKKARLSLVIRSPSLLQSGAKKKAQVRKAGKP
The note with it: protein MYBBP1A (Q9BQG0).

In assay [2] the target is proteins of HEK293T cells transiently overexpressing caspase-6 (Homo sapiens, UniProt P24752). The note with it: Probe; protein ACAT1 P24752.
proteins of HEK293T cells transiently overexpressing caspase-6 (Homo sapiens, UniProt P24752), sequence (P24752 34-427): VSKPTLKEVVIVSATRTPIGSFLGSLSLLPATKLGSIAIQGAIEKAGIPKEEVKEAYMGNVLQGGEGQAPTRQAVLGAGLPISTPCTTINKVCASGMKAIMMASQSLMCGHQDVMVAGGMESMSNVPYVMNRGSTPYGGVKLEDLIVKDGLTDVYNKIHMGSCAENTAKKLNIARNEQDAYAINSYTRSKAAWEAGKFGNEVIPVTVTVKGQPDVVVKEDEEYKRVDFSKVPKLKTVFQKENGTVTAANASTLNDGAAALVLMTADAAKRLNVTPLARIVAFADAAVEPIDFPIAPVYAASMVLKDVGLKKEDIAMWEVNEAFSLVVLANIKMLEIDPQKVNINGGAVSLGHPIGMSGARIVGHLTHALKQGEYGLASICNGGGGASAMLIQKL
Assay [3] addresses proteins of HEK293T cells transiently overexpressing caspase-6 (Homo sapiens, UniProt Q14566). The note with it: exp_ref Probe; protein MCM6 (Q14566); analysis C6.
For assay [4], the target named is proteins of HEK293T cells transiently overexpressing caspase-6 (Homo sapiens, UniProt Q15185). The note with it: exp_ref Probe; protein PTGES3 (Q15185); analysis C6.
proteins of HEK293T cells transiently overexpressing caspase-6 (Homo sapiens, UniProt Q15185), sequence (Q15185 whole entry): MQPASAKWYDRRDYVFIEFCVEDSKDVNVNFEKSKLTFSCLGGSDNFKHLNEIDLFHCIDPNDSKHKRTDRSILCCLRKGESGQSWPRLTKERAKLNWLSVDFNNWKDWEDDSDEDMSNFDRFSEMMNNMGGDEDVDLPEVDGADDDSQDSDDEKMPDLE
The target of assay [5] is T2, proteins of HEK293T cells transiently overexpressing caspase-6 (Homo sapiens, UniProt P30041).
T2 sequence (P30041 1-224): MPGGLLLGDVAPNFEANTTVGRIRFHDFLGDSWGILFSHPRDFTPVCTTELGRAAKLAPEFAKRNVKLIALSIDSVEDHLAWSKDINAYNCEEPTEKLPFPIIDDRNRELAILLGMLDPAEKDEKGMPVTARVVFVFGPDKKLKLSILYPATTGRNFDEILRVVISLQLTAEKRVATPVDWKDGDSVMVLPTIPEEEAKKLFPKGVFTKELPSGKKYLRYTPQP
The note with it: protein PRDX6 (P30041).

Assay [6] concerns the target T3, proteins of HEK293T cells transiently overexpressing caspase-6 (Homo sapiens, UniProt P00505).
T3 sequence (P00505 30-430): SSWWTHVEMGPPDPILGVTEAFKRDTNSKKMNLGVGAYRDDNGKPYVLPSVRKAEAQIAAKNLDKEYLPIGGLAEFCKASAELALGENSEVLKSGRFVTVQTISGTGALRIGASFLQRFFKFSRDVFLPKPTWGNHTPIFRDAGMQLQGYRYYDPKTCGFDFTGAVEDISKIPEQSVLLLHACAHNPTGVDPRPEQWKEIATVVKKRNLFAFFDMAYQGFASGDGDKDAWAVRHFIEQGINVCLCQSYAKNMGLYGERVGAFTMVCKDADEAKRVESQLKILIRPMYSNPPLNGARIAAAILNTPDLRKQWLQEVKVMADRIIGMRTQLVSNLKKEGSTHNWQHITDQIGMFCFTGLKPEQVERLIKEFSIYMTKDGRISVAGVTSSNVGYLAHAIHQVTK

For assay [7], the target named is proteins of HEK293T cells transiently overexpressing caspase-6 (Homo sapiens, UniProt O75643). The conditions noted are these: exp_ref Probe; protein SNRNP200 (O75643); analysis C6.
proteins of HEK293T cells transiently overexpressing caspase-6 (Homo sapiens, UniProt O75643), sequence (O75643 whole entry): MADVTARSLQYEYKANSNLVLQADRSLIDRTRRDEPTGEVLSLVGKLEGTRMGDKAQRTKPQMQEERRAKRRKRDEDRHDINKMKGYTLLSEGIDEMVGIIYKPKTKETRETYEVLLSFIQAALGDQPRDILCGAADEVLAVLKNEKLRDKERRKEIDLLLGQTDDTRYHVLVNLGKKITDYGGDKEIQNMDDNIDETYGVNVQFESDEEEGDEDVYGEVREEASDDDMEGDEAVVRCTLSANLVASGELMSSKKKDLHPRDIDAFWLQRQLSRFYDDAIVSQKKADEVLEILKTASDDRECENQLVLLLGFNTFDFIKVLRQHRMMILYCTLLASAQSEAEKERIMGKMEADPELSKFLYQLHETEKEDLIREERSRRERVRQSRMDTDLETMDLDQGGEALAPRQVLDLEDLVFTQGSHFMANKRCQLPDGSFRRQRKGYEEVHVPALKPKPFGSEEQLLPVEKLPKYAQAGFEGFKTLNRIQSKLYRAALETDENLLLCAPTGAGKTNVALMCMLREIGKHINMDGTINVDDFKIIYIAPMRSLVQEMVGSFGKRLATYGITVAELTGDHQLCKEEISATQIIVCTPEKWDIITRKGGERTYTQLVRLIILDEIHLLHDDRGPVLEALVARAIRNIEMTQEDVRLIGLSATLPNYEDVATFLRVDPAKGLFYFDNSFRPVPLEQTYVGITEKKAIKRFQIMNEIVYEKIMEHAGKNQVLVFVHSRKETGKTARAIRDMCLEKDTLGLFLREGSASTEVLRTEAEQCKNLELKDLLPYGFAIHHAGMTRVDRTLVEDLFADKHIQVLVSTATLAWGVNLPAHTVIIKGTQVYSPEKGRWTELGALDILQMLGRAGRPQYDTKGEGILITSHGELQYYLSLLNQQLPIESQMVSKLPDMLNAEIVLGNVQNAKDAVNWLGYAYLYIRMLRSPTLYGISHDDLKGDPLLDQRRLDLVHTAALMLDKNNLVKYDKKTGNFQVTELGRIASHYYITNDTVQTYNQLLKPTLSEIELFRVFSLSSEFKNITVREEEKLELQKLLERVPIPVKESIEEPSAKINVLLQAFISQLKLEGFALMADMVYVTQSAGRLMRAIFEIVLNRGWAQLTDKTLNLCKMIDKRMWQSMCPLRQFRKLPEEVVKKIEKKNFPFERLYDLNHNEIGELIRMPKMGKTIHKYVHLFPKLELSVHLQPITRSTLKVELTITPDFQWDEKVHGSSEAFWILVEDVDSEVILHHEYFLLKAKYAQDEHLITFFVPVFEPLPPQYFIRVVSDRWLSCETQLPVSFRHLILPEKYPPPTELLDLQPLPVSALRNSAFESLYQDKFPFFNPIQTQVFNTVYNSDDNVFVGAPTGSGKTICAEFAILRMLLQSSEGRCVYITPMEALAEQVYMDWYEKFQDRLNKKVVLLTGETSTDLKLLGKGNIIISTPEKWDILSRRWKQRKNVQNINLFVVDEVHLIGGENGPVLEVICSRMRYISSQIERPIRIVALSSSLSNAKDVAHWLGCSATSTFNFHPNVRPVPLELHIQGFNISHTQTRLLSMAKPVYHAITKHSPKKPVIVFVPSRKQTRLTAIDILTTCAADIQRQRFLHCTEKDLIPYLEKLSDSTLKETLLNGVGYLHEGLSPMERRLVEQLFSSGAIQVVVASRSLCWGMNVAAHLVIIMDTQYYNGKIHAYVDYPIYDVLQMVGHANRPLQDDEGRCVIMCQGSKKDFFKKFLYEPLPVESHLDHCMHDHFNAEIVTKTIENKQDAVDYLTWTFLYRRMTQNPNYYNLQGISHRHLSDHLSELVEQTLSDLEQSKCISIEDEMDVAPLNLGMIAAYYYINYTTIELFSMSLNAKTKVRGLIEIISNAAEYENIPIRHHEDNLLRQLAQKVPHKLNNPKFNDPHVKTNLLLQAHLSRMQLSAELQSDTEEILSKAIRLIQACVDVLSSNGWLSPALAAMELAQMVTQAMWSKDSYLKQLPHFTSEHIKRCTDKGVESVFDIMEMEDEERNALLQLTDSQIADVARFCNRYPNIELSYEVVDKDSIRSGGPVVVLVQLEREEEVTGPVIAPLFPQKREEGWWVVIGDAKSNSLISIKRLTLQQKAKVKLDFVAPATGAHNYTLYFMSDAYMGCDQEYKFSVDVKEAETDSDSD

For one molecule, enrich.exp.med, enrich.exp.med.lin and enrich.exp.med.log2 results are on record in publication PMC10176470, “Engaging a Non-catalytic Cysteine Residue Drives Potent and Selective Inhibition of Caspase-6” (Journal of the American Chemical Society, 2023).

proteins of HEK293T cells transiently overexpressing caspase-6 (Homo sapiens, UniProt Q14566), sequence (Q14566 whole entry): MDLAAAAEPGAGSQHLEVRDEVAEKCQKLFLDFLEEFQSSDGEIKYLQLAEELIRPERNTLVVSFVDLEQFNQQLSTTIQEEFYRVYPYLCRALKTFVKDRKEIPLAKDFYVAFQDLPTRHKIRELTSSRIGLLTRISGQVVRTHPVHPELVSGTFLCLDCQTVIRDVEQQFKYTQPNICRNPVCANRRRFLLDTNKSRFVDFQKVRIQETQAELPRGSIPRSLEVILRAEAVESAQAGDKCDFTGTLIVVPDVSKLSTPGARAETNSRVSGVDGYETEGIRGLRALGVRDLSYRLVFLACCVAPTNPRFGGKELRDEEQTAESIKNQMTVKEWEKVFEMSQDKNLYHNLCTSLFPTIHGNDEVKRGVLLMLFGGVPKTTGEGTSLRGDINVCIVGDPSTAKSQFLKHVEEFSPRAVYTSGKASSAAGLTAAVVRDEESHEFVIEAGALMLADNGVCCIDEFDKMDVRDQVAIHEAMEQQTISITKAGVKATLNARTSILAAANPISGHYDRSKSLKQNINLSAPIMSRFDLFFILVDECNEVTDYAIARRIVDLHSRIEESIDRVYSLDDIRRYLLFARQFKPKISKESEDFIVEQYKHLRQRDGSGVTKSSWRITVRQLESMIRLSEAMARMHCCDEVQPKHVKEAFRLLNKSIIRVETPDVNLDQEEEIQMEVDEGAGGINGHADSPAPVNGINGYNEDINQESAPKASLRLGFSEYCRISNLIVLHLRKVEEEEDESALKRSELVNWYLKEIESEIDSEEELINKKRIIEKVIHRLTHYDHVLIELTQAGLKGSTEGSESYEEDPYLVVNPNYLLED

As for `C#CCOc1ccc([C@@H]2C[C@@H](C(=O)Nc3ccc(OC(F)(F)F)cc3)CN(S(=O)(=O)C=C)C2)cc1` (relative stereo) [13-t], the enrich.exp.med is recorded as 1.154 in assay [1] (exp_ref Probe, analysis C6); -1.066 in assay [2]; 0.05791 in assay [3]; 1.128 in assay [4]; 0.7015 in assay [5] (exp_ref Probe, analysis C6); -0.8861 in assay [6] (Probe, protein GOT2 P00505). In assay [7], this molecule yielded an enrich.exp.med of -0.0557. The enrich.exp.med.lin is 2.225 in assay [1], 1.626 in assay [5] and 0.5411 in assay [6] (protein GOT2 (P00505)). The enrich.exp.med.log2 in assay [1] was 1.154; in assay [5] it was 0.7015; in assay [6] (protein GOT2 (P00505)), -0.8861.
